According to US20240246941A1, “SUBSTITUTED 4-(3-AMINOPROP-1-YL)AMINOQUINOLINE ANALOGS AS MODULATORS OF MELANOMA-ASSOCIATED ANTIGEN 11 UBIQUITIN LIGASE” (ST. JUDE CHILDREN'S RESEARCH HOSPITAL, INC., priority 2020, published 2024):

What follows are molecules tested against interaction between GST-MAGEA11 MHD and FAM-PCF11_4 peptide (MAGE-A11:PCF11) (Homo sapiens (Human), UniProt P43364) (assay: TR-FRET dose response competition assay for disruption of MAGE-A11:PCF11 binding). Conditions: Dose response TR-FRET screening of nine scaffold groups against MAGE-A11:PCF11; read-out: consensus IC50.
Chain of interaction between GST-MAGEA11 MHD and FAM-PCF11_4 peptide (MAGE-A11:PCF11) (P43364 218-429): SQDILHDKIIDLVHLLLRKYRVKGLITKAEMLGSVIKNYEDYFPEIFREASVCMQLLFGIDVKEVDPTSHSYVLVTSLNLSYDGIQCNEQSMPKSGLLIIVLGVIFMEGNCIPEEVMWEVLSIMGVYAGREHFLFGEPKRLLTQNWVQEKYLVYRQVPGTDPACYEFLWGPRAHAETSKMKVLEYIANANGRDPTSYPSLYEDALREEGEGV
In short: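 Competition TR-FRET at room temperature in 50 mM Tris pH 7.5, 20 mM MgCl2, 0.1 mg/ml BSA, 1 mM DTT: final 5 nM GST-MAGEA11 MHD, 5 nM Tb-anti-GST, 200 nM FAM-PCF11_4, 90 min. Ratio 520/490 nm converted to % inhibition; IC50 from sigmoidal fit.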
`COc1cccc(Oc2ccc3c(NCCCNCc4cccc5c4OCO5)ccnc3c2)c1` [SJ000311216-1] gave an IC50 of 36.9 µM.
Work on `COc1cccc(Oc2ccc3c(NCCCNCc4cc(F)ccc4OC)ccnc3c2)c1` [SJ000311217-1] yielded an IC50 of 36.8 µM.
`COc1ccc(Oc2ccc3c(NCCCNCc4cccc(OC)c4O)ccnc3c2)cc1` [SJ000311219-1] was tested, and the IC50 was 29 µM.
`COc1ccc(Oc2ccc3c(NCCCNCc4cccc5c4OCO5)ccnc3c2)cc1` [SJ000311220-1] showed an IC50 of 43.7 µM.
For `COc1ccc(Oc2ccc3c(NCCCNCc4cc(F)ccc4OC)ccnc3c2)cc1` [SJ000311221-1], the IC50 was 46.4 µM.
`COc1cccc(CNCCCNc2ccnc3cc(Oc4ccc(F)cc4)ccc23)c1O` [SJ000311223-1] was tested, and the IC50 was 61.9 µM.
Molecule `Fc1ccc(Oc2ccc3c(NCCCNCc4cccc5c4OCO5)ccnc3c2)cc1` [SJ000311224-1] has an IC50 of 59.6 µM.
Work on `COc1ccc(F)cc1CNCCCNc1ccnc2cc(Oc3ccc(F)cc3)ccc12` [SJ000311225-1] yielded an IC50 of 69.9 µM.
`COc1cccc(CNCCCNc2ccnc3cc(Oc4ccc(Cl)cc4)ccc23)c1O` [SJ000311227-1] showed an IC50 of 20.7 µM.
For `Clc1ccc(Oc2ccc3c(NCCCNCc4cccc5c4OCO5)ccnc3c2)cc1` [SJ000311228-1], the IC50 was 17.7 µM.
`COc1ccc(F)cc1CNCCCNc1ccnc2cc(Oc3ccc(Cl)cc3)ccc12` [SJ000311229-1] was tested, and the IC50 was 19.7 µM.
For `COc1cccc(CNCCCNc2ccnc3cc(Oc4cccc(N(C)C)c4)ccc23)c1O` [SJ000311231-1], the IC50 was 69.9 µM.
`CN(C)c1cccc(Oc2ccc3c(NCCCNCc4cccc5c4OCO5)ccnc3c2)c1` [SJ000311232-1] showed an IC50 of 69.9 µM.
With `COc1ccc(F)cc1CNCCCNc1ccnc2cc(Oc3cccc(N(C)C)c3)ccc12` [SJ000311233-1] the IC50 was 5.63 µM.
Work on `COc1cccc(CNCCCNc2ccnc3cc(Oc4ccc(C(C)(C)C)cc4)ccc23)c1O` [SJ000311235-1] yielded an IC50 of 7.65 µM.
Molecule `CC(C)(C)c1ccc(Oc2ccc3c(NCCCNCc4cccc5c4OCO5)ccnc3c2)cc1` [SJ000311236-1] has an IC50 of 8.67 µM.
`COc1ccc(F)cc1CNCCCNc1ccnc2cc(Oc3ccc(C(C)(C)C)cc3)ccc12` [SJ000311237-1] was tested, and the IC50 was 6.29 µM.
With `COc1cccc(CNCCCNc2ccnc3cc(-c4ccc(F)cc4)ccc23)c1O` [SJ000311239-1] the IC50 was 33.3 µM.
`Fc1ccc(-c2ccc3c(NCCCNCc4cccc5c4OCO5)ccnc3c2)cc1` [SJ000311240-1] showed an IC50 of 25 µM.
Molecule `COc1ccc(F)cc1CNCCCNc1ccnc2cc(-c3ccc(F)cc3)ccc12` [SJ000311241-1] has an IC50 of 38.9 µM.
`COc1cccc(CNCCCNc2ccnc3cc(Cc4ccc(F)cc4)ccc23)c1O` [SJ000311243-1] was tested, and the IC50 was 43.6 µM.
For `Fc1ccc(Cc2ccc3c(NCCCNCc4cccc5c4OCO5)ccnc3c2)cc1` [SJ000311244-1], the IC50 was 42.3 µM.
For `COc1ccc(F)cc1CNCCCNc1ccnc2cc(Cc3ccc(F)cc3)ccc12` [SJ000311245-1], the IC50 was 35.1 µM.
Molecule `COc1cccc(CNCCCNc2ccnc3cc(CCC(C)C)ccc23)c1O` [SJ000311247-1] has an IC50 of 69.9 µM.
With `CC(C)CCc1ccc2c(NCCCNCc3cccc4c3OCO4)ccnc2c1` [SJ000311248-1] the IC50 was 27.7 µM.
Molecule `COc1ccc(F)cc1CNCCCNc1ccnc2cc(CCC(C)C)ccc12` [SJ000311249-1] has an IC50 of 69.9 µM.
For `COc1cccc(CNCCCNc2ccnc3cc(CC4CCCCC4)ccc23)c1O` [SJ000311251-1], the IC50 was 29.2 µM.
Molecule `c1cc(CNCCCNc2ccnc3cc(CC4CCCCC4)ccc23)c2c(c1)OCO2` [SJ000311252-1] has an IC50 of 16 µM.

Same assay, conditions: Table 5, dose response TR-FRET screening of 59 quinoline compounds against MAGE-A11:PCF11; read-out: TR-FRET IC50
With `COc1ccc(Oc2ccc3c(NCCCNCc4ccco4)ccnc3c2)cc1` [SJ000311218-1] the IC50 was greater than 70 µM.
With `Clc1ccc(Oc2ccc3c(NCCCNCc4ccco4)ccnc3c2)cc1` [SJ000311226-1] the IC50 was greater than 70 µM.
For `CN(C)c1cccc(Oc2ccc3c(NCCCNCc4ccco4)ccnc3c2)c1` [SJ000311230-1], the IC50 was greater than 70 µM.
Molecule `CC(C)(C)c1ccc(Oc2ccc3c(NCCCNCc4ccco4)ccnc3c2)cc1` [SJ000311234-1] has an IC50 of 32.1 µM.
For `c1coc(CNCCCNc2ccnc3cc(CC4CCCCC4)ccc23)c1` [SJ000311250-1], the IC50 was 54.9 µM.

Same assay, conditions: Table 8, representative compounds; read-out: TR-FRET IC50
`COc1cccc(Oc2ccc3c(NCCCNCc4cccc(OC)c4O)ccnc3c2)c1` [SJ000311215] was tested, and the IC50 was 69.9 µM.
`COc1cccc(Oc2ccc3c(NCCCNCc4cccc5c4OCO5)ccnc3c2)c1` [SJ000311216] gave an IC50 of 36.9 µM.
For `COc1cccc(Oc2ccc3c(NCCCNCc4cc(F)ccc4OC)ccnc3c2)c1` [SJ000311217], the IC50 was 36.8 µM.
`COc1ccc(Oc2ccc3c(NCCCNCc4cccc(OC)c4O)ccnc3c2)cc1` [SJ000311219] was tested, and the IC50 was 29.1 µM.
`COc1ccc(Oc2ccc3c(NCCCNCc4cccc5c4OCO5)ccnc3c2)cc1` [SJ000311220] was tested, and the IC50 was 43.7 µM.
In the case of `COc1ccc(Oc2ccc3c(NCCCNCc4cc(F)ccc4OC)ccnc3c2)cc1` [SJ000311221], the IC50 is reported as 46.5 µM.
In the case of `COc1cccc(CNCCCNc2ccnc3cc(Oc4ccc(F)cc4)ccc23)c1O` [SJ000311223], the IC50 is reported as 61.9 µM.
`Fc1ccc(Oc2ccc3c(NCCCNCc4cccc5c4OCO5)ccnc3c2)cc1` [SJ000311224] was tested, and the IC50 was 59.6 µM.
`COc1ccc(F)cc1CNCCCNc1ccnc2cc(Oc3ccc(F)cc3)ccc12` [SJ000311225] showed an IC50 of 69.9 µM.
For `COc1cccc(CNCCCNc2ccnc3cc(Oc4ccc(Cl)cc4)ccc23)c1O` [SJ000311227], the IC50 was 20.7 µM.
`Clc1ccc(Oc2ccc3c(NCCCNCc4cccc5c4OCO5)ccnc3c2)cc1` [SJ000311228] showed an IC50 of 17.7 µM.
Work on `COc1ccc(F)cc1CNCCCNc1ccnc2cc(Oc3ccc(Cl)cc3)ccc12` [SJ000311229] yielded an IC50 of 19.7 µM.
For `COc1cccc(CNCCCNc2ccnc3cc(Oc4cccc(N(C)C)c4)ccc23)c1O` [SJ000311231], the IC50 was 69.9 µM.
In the case of `CN(C)c1cccc(Oc2ccc3c(NCCCNCc4cccc5c4OCO5)ccnc3c2)c1` [SJ000311232], the IC50 is reported as 69.9 µM.
With `COc1ccc(F)cc1CNCCCNc1ccnc2cc(Oc3cccc(N(C)C)c3)ccc12` [SJ000311233] the IC50 was 5.63 µM.
For `COc1cccc(CNCCCNc2ccnc3cc(Oc4ccc(C(C)(C)C)cc4)ccc23)c1O` [SJ000311235], the IC50 was 7.65 µM.
`CC(C)(C)c1ccc(Oc2ccc3c(NCCCNCc4cccc5c4OCO5)ccnc3c2)cc1` [SJ000311236] gave an IC50 of 8.67 µM.
`COc1ccc(F)cc1CNCCCNc1ccnc2cc(Oc3ccc(C(C)(C)C)cc3)ccc12` [SJ000311237] gave an IC50 of 6.29 µM.
`COc1cccc(CNCCCNc2ccnc3cc(-c4ccc(F)cc4)ccc23)c1O` [SJ000311239] gave an IC50 of 33.3 µM.
`Fc1ccc(-c2ccc3c(NCCCNCc4cccc5c4OCO5)ccnc3c2)cc1` [SJ000311240] gave an IC50 of 25 µM.
`COc1ccc(F)cc1CNCCCNc1ccnc2cc(-c3ccc(F)cc3)ccc12` [SJ000311241] was tested, and the IC50 was 38.9 µM.
`COc1cccc(CNCCCNc2ccnc3cc(Cc4ccc(F)cc4)ccc23)c1O` [SJ000311243] gave an IC50 of 43.6 µM.
In the case of `Fc1ccc(Cc2ccc3c(NCCCNCc4cccc5c4OCO5)ccnc3c2)cc1` [SJ000311244], the IC50 is reported as 42.3 µM.
In the case of `COc1ccc(F)cc1CNCCCNc1ccnc2cc(Cc3ccc(F)cc3)ccc12` [SJ000311245], the IC50 is reported as 35.1 µM.
In the case of `COc1cccc(CNCCCNc2ccnc3cc(CCC(C)C)ccc23)c1O` [SJ000311247], the IC50 is reported as 69.9 µM.
In the case of `CC(C)CCc1ccc2c(NCCCNCc3cccc4c3OCO4)ccnc2c1` [SJ000311248], the IC50 is reported as 27.7 µM.
In the case of `COc1ccc(F)cc1CNCCCNc1ccnc2cc(CCC(C)C)ccc12` [SJ000311249], the IC50 is reported as 69.9 µM.
`COc1cccc(CNCCCNc2ccnc3cc(CC4CCCCC4)ccc23)c1O` [SJ000311251] gave an IC50 of 29.2 µM.
`c1cc(CNCCCNc2ccnc3cc(CC4CCCC4)ccc23)c2c(c1)OCO2` [SJ000311252] showed an IC50 of 16 µM.
